Results published in the NIST ThermoML archive (doi:10.1016/j.jct.2004.11.013).

Experiments:
[1] = Liquid; for speed of sound / mass density: 303.15 K, 101.33 kPa; for speed of sound: Linear variable-path acoustic interferometer; for mass density: Pycnometric method
[2] = φn = volume fraction of the nth substance listed; details: 303.15 K, 101.33 kPa, Liquid, Linear variable-path acoustic interferometer
[3] = xn = mol fraction of the nth substance listed; details: 303.15 K, 101.33 kPa, Liquid, Direct dilatometry

CC(Cl)(Cl)Cl [1,1,1-trichloroethane]
[1]
Details | Normal boiling temperature [°C] | mass density [kg/m3] | speed of sound [m/s]
– | 74 | 1320.92 | 943.2

CC(Cl)(Cl)Cl [1,1,1-trichloroethane] + BrCCBr
Details | excess molar volume [m3/mol] | speed of sound [m/s]
[2], φ2 = 0 | – | 943.2
[2], φ2 = 0.0787 | – | 942.1
[2], φ2 = 0.1718 | – | 942.1
[2], φ2 = 0.2457 | – | 944.6
[2], φ2 = 0.3811 | – | 950.4
[2], φ2 = 0.4866 | – | 958.1
[2], φ2 = 0.595 | – | 961
[2], φ2 = 0.6486 | – | 965.1
[2], φ2 = 0.8532 | – | 973.6
[3], x2 = 0.0902 | -7.3e-08 | –
[3], x2 = 0.1941 | -1.2e-07 | –
[3], x2 = 0.2744 | -1.33e-07 | –
[3], x2 = 0.4169 | -1.11e-07 | –
[3], x2 = 0.5239 | -6.4e-08 | –
[3], x2 = 0.6304 | -6e-09 | –
[3], x2 = 0.6818 | 2.1e-08 | –
[3], x2 = 0.8709 | 6.9e-08 | –

ClC(Cl)C(Cl)Cl [1,1,2,2-tetrachloroethane]
[1]
Details | Normal boiling temperature [°C] | mass density [kg/m3] | speed of sound [m/s]
– | 146.10 | 1578.57 | 1133.1

ClC(Cl)C(Cl)Cl [1,1,2,2-tetrachloroethane] + BrCCBr
Details | speed of sound [m/s]
[2], φ2 = 0 | 1133.1

BrCCBr [1,2-dibromoethane]
[1]
Details | Normal boiling temperature [°C] | mass density [kg/m3] | speed of sound [m/s]
– | 131.50 | 2159.67 | 984

BrCCBr [1,2-dibromoethane] + CC(Cl)(Cl)Cl
Details | speed of sound [m/s]
[2], φ1 = 1 | 984

BrCCBr [1,2-dibromoethane] + ClC(Cl)=C(Cl)Cl
Details | excess molar volume [m3/mol] | speed of sound [m/s]
[2], φ1 = 0.0955 | – | 1010.1
[2], φ1 = 0.2327 | – | 992.8
[2], φ1 = 0.321 | – | 985.8
[2], φ1 = 0.4381 | – | 980.4
[2], φ1 = 0.5881 | – | 975.3
[2], φ1 = 0.6802 | – | 975.1
[2], φ1 = 0.7639 | – | 973.7
[2], φ1 = 0.8904 | – | 978.1
[2], φ1 = 1 | – | 984
[3], x1 = 0.1133 | 3e-07 | –
[3], x1 = 0.2647 | 4.61e-07 | –
[3], x1 = 0.3594 | 4.72e-07 | –
[3], x1 = 0.4806 | 4.4e-07 | –
[3], x1 = 0.6289 | 3.66e-07 | –
[3], x1 = 0.7163 | 3.1e-07 | –
[3], x1 = 0.7934 | 2.55e-07 | –
[3], x1 = 0.906 | 1.43e-07 | –

BrCCBr [1,2-dibromoethane] + ClC(Cl)C(Cl)Cl
Details | excess molar volume [m3/mol] | speed of sound [m/s]
[2], φ1 = 0.0736 | – | 1123.4
[2], φ1 = 0.1308 | – | 1112.7
[2], φ1 = 0.2625 | – | 1092.9
[2], φ1 = 0.3958 | – | 1069.6
[2], φ1 = 0.4864 | – | 1054.5
[2], φ1 = 0.6302 | – | 1031.7
[2], φ1 = 0.7156 | – | 1019.7
[2], φ1 = 0.895 | – | 995
[2], φ1 = 1 | – | 984
[3], x1 = 0.0885 | -5.2e-08 | –
[3], x1 = 0.1554 | -9e-08 | –
[3], x1 = 0.3032 | -1.56e-07 | –
[3], x1 = 0.4447 | -1.71e-07 | –
[3], x1 = 0.5365 | -1.56e-07 | –
[3], x1 = 0.6757 | -9.8e-08 | –
[3], x1 = 0.7546 | -5.9e-08 | –
[3], x1 = 0.9124 | -3e-09 | –

BrCCBr [1,2-dibromoethane] + ClC=C(Cl)Cl
Details | speed of sound [m/s]
[2], φ1 = 1 | 984

BrCCBr [1,2-dibromoethane] + ClCCCl
Details | excess molar volume [m3/mol] | speed of sound [m/s]
[2], φ1 = 0.1012 | – | 1149.2
[2], φ1 = 0.1885 | – | 1125
[2], φ1 = 0.2842 | – | 1101.8
[2], φ1 = 0.3697 | – | 1079.6
[2], φ1 = 0.5106 | – | 1047.3
[2], φ1 = 0.6049 | – | 1029.8
[2], φ1 = 0.7908 | – | 1001.3
[2], φ1 = 0.8724 | – | 993
[2], φ1 = 1 | – | 984
[3], x1 = 0.0938 | 1.7e-08 | –
[3], x1 = 0.1759 | 3e-08 | –
[3], x1 = 0.2673 | 4.2e-08 | –
[3], x1 = 0.3502 | 4.7e-08 | –
[3], x1 = 0.4894 | 5.2e-08 | –
[3], x1 = 0.5845 | 5.1e-08 | –
[3], x1 = 0.7764 | 3.5e-08 | –
[3], x1 = 0.8626 | 2.5e-08 | –

ClCCCl [1,2-dichloroethane]
[1]
Details | Normal boiling temperature [°C] | mass density [kg/m3] | speed of sound [m/s]
– | 83.6 | 1238.28 | 1173.3

ClCCCl [1,2-dichloroethane] + BrCCBr
Details | speed of sound [m/s]
[2], φ2 = 0 | 1173.3

ClC(Cl)=C(Cl)Cl [tetrachloroethene]
[1]
Details | Normal boiling temperature [°C] | mass density [kg/m3] | speed of sound [m/s]
– | 121.30 | 1606.36 | 1027.8

ClC(Cl)=C(Cl)Cl [tetrachloroethene] + BrCCBr
Details | speed of sound [m/s]
[2], φ2 = 0 | 1027.8

ClC=C(Cl)Cl [trichloroethene]
[1]
Details | Normal boiling temperature [°C] | mass density [kg/m3] | speed of sound [m/s]
– | 87.2 | 1451.34 | 1013.7

ClC=C(Cl)Cl [trichloroethene] + BrCCBr
Details | excess molar volume [m3/mol] | speed of sound [m/s]
[2], φ2 = 0 | – | 1013.7
[2], φ2 = 0.0922 | – | 1000.5
[2], φ2 = 0.2012 | – | 990.5
[2], φ2 = 0.2951 | – | 982.5
[2], φ2 = 0.4462 | – | 973.5
[2], φ2 = 0.54 | – | 971.2
[2], φ2 = 0.6986 | – | 968.2
[2], φ2 = 0.7836 | – | 972.4
[2], φ2 = 0.8885 | – | 975.9
[3], x2 = 0.0956 | 6.3e-08 | –
[3], x2 = 0.2077 | 1.29e-07 | –
[3], x2 = 0.3035 | 1.74e-07 | –
[3], x2 = 0.4561 | 2.09e-07 | –
[3], x2 = 0.5499 | 2.08e-07 | –
[3], x2 = 0.7069 | 1.64e-07 | –
[3], x2 = 0.7903 | 1.25e-07 | –
[3], x2 = 0.8924 | 6.4e-08 | –
